Laboratory results taken from patent publication EP4806891A1 (Kangbaida (Sichuan) Biotechnology Co., Ltd., priority 2023, dated 2025).

Biological target: T1, HEK-Blue-hTLR7 cells (Homo sapiens, UniProt Q9NYK1)
T1 construct: expressed in transfected cells; host or cells: HEK-Blue-hTLR7 cells (HEK293-derived reporter line)
T1 sequence (Q9NYK1 27-1049): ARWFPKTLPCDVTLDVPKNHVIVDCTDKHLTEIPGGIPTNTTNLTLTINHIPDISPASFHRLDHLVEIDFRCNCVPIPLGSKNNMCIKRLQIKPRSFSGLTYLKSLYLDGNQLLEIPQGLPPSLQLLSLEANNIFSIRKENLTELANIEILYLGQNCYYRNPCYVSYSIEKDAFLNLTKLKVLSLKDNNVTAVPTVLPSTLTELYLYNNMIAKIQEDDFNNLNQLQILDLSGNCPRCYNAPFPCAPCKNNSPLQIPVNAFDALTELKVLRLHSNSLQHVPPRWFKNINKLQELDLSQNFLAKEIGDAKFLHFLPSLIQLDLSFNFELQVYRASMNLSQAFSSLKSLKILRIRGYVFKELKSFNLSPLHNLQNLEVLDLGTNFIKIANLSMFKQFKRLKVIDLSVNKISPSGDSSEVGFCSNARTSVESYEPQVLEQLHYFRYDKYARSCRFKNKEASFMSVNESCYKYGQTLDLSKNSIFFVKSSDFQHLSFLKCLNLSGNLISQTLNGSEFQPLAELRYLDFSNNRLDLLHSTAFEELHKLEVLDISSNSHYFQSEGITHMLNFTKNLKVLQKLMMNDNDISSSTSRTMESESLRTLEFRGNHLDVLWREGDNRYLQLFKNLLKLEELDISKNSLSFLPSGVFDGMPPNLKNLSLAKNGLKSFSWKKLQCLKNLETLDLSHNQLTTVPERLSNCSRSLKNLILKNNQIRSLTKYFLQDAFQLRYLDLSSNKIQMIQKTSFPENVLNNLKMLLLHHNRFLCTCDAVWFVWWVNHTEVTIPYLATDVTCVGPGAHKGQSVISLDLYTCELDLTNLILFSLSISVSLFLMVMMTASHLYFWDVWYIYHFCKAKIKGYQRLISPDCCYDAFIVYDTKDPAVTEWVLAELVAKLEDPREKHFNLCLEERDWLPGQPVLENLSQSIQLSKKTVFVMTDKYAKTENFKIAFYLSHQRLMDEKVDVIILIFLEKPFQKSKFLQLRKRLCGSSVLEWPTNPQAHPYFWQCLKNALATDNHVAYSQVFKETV
Assay: HEK-Blue-hTLR7 cell inhibition assay
Format: cell-based
Settings: R848 0.8 µM, 16 h, OD 620 nm, read-out: TLR7 IC50
Method in brief: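 Cells were pre-incubated 4 h, then co-treated 16 h at 37 °C with compound (10 doses, 0.5–10000 nM final) plus R848 (0.8 µM for TLR7, 3 µM for TLR8) or ODN2006 (1 µM, TLR9). Reporter OD620 gave inhibition relative to DMSO blank and agonist-only controls; IC50 came from curve fitting.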

Compound	IC50 [nM]
CN1CCC(F)(c2nnc([C@]34CN(c5ccc(C#N)c6ncccc56)C[C@@]3(C(F)(F)F)C4)o2)C1 (stereo partly drawn) [Compound 47, 5-((1S,5R)-1-(5-(3-fluoro-1-methylpyrrolidin-3-yl)-1,3,4-oxadiazol-2-yl)-5-(trifluoromethyl)-3-azabicyclo[3.1.0]hexan-3-yl)quinoline-8-carbonitrile]	< 100
CN1CC(F)(c2nnc([C@]34CN(c5ccc(C#N)c6ncccc56)C[C@@]3(C(F)(F)F)C4)o2)C1 [Compound 49, 5-((1S,5R)-1-(5-(3-fluoro-1-methylazetidin-3-yl)-1,3,4-oxadiazol-2-yl)-5-(trifluoromethyl)-3-azabicyclo[3.1.0]hexan-3-yl)quinoline-8-carbonitrile]	< 100
CN1CCC(c2nnc([C@]34CN(c5ccc(C#N)c6ncccc56)C[C@@]3(C(F)(F)F)C4)o2)C(F)C1 (stereo partly drawn) [Compound 50, 5-((1S,5R)-1-(5-(3-fluoro-1-methylpiperidin-4-yl)-1,3,4-oxadiazol-2-yl)-5-(trifluoromethyl)-3-azabicyclo[3.1.0]hexan-3-yl)quinoline-8-carbonitrile]	< 100
CN(C)CCc1nnc([C@]23CN(c4ccc(C#N)c5ncccc45)C[C@@]2(C(F)(F)F)C3)o1 [Compound 51, 5-((1S,5R)-1-(5-(2-(dimethylamino)ethyl)-1,3,4-oxadiazol-2-yl)-5-(trifluoromethyl)-3-azabicyclo[3.1.0]hexan-3-yl)quinoline-8-carbonitrile]	< 100
N#Cc1ccc(N2C[C@]3(c4nnc(C56CCC(N)(CC5)CC6)o4)C[C@]3(C(F)(F)F)C2)c2cccnc12 [Compound 52, 5-((1S,5R)-1-(5-(4-aminobicyclo[2.2.2]octan-1-yl)-1,3,4-oxadiazol-2-yl)-5-(trifluoromethyl)-3-azabicyclo[3.1.0]hexan-3-yl)quinoline-8-carbonitrile]	< 100
CN(C)C12CCC(c3nnc([C@]45CN(c6ccc(C#N)c7ncccc67)C[C@@]4(C(F)(F)F)C5)o3)(CC1)CC2 [Compound 53, 5-((1S,5R)-1-(5-(4-(dimethylamino)bicyclo[2.2.2]octan-1-yl)-1,3,4-oxadiazol-2-yl)-5-(trifluoromethyl)-3-azabicyclo[3.1.0]hexan-3-yl)quinoline-8-carbonitrile]	< 100
N#Cc1ccc(N2C[C@]3(c4nnc(C56CCC(NC(=O)[C@@H]7COCCN7)(CC5)CC6)o4)C[C@]3(C(F)(F)F)C2)c2cccnc12 [Compound 54, (S)-N-(4-(5-((1S,5R)-3-(8-cyanoquinolin-5-yl)-5-(trifluoromethyl)-3-azabicyclo[3.1.0]hexan-1-yl)-1,3,4-oxadiazol-2-yl)bicyclo[2.2.2]octan-1-yl)morpholine-3-carboxamide]	< 100
N#Cc1ccc(N2C[C@]3(c4nnc([C@H]5CN(CC(N)=O)CCO5)o4)C[C@]3(C(F)(F)F)C2)c2cccnc12 [Compound 56, 2-((R)-2-(5-((1S,5R)-3-(8-cyanoquinolin-5-yl)-5-(trifluoromethyl)-3-azabicyclo[3.1.0]hexan-1-yl)-1,3,4-oxadiazol-2-yl)morpholino)acetamide]	< 100
CN1CCC(c2nnc([C@]34CN(c5ccc(C#N)n6ncc(F)c56)C[C@@]3(C(F)(F)F)C4)o2)CC1 [Compound 57, 3-fluoro-4-((1S,5R)-1-(5-(1-methylpiperidin-4-yl)-1,3,4-oxadiazol-2-yl)-5-(trifluoromethyl)-3-azabicyclo[3.1.0]hexan-3-yl)pyrazolo[1,5-a]pyridine-7-carbonitrile]	< 100
CN1CCC(c2nnc([C@]34CN(c5ccc(C#N)n6nccc56)C[C@@]3(C(F)(F)F)C4)o2)CC1 [Compound 59, 4-((1S,5R)-1-(5-(1-methylpiperidin-4-yl)-1,3,4-oxadiazol-2-yl)-5-(trifluoromethyl)-3-azabicyclo[3.1.0]hexan-3-yl)pyrazolo[1,5-a]pyridine-7-carbonitrile]	< 100
N#Cc1ccc(N2C[C@]3(c4nnc(C5(F)CCNCC5)o4)C[C@]3(C(F)(F)F)C2)c2cccnc12 [Compound 60, 5-((1S,5R)-1-(5-(4-fluoropiperidin-4-yl)-1,3,4-oxadiazol-2-yl)-5-(trifluoromethyl)-3-azabicyclo[3.1.0]hexan-3-yl)quinoline-8-carbonitrile]	< 100
CN1CCC(c2nnc([C@]34CN(c5ccc(OC(F)(F)F)c6ncccc56)C[C@@]3(C(F)(F)F)C4)o2)CC1 [Compound 64, 2-(1-methylpiperidin-4-yl)-5-((1S,5R)-5-(trifluoromethyl)-3-(8-(trifluoromethoxy)quinolin-5-yl)-3-azabicyclo[3.1.0]hexan-1-yl)-1,3,4-oxadiazole]	< 100
COc1ccc(N2C[C@]3(c4nnc(C5CCN(C)CC5)o4)C[C@]3(C(F)(F)F)C2)c2cccnc12 [Compound 66, 2-((1S,5R)-3-(8-methoxyquinolin-5-yl)-5-(trifluoromethyl)-3-azabicyclo[3.1.0]hexan-1-yl)-5-(1-methylpiperidin-4-yl)-1,3,4-oxadiazole]	< 100
CN1CCC(n2cc([C@]34CN(c5ccc(C#N)c6ncccc56)C[C@@]3(C(F)(F)F)C4)nn2)CC1 [Compound 71, 5-((1S,5R)-1-(1-(1-methylpiperidin-4-yl)-1H-1,2,3-triazol-4-yl)-5-(trifluoromethyl)-3-azabicyclo[3.1.0]hexan-3-yl)quinoline-8-carbonitrile]	< 100
FC(F)(F)c1ccc(N2C[C@]3(c4nnc(C5CCNCC5)o4)C[C@]3(C(F)(F)F)C2)c2cccnc12 [Compound 75, 2-(piperidin-4-yl)-5-((1S,5R)-5-(trifluoromethyl)-3-(8-(trifluoromethyl)quinolin-5-yl)-3-azabicyclo[3.1.0]hexan-1-yl)-1,3,4-oxadiazole]	< 100
FC(F)(F)c1ccc(N2C[C@]3(c4nnc(C5CCN(CC6CC6)CC5)o4)C[C@]3(C(F)(F)F)C2)c2cccnc12 [Compound 76, 2-(1-(cyclopropylmethyl)piperidin-4-yl)-5-((1S,5R)-5-(trifluoromethyl)-3-(8-(trifluoromethyl)quinolin-5-yl)-3-azabicyclo[3.1.0]hexan-1-yl)-1,3,4-oxadiazole]	< 100
NC(=O)CN1CCC(c2nnc([C@]34CN(c5ccc(C(F)(F)F)c6ncccc56)C[C@@]3(C(F)(F)F)C4)o2)CC1 [Compound 77, 2-(4-(5-((1S,5R)-5-(trifluoromethyl)-3-(8-(trifluoromethyl)quinolin-5-yl)-3-azabicyclo[3.1.0]hexan-1-yl)-1,3,4-oxadiazol-2-yl)piperidin-1-yl)acetamide]	< 100
CN1[C@@H]2CC[C@H]1C[C@H](c1nnc([C@]34CN(c5ccc(C(F)(F)F)c6ncccc56)C[C@@]3(C(F)(F)F)C4)o1)C2 [Compound 79, 2-((1R,3S,5S)-8-methyl-8-azabicyclo[3.2.1]octan-3-yl)-5-((1S,5R)-5-(trifluoromethyl)-3-(8-(trifluoromethyl)quinolin-5-yl)-3-azabicyclo[3.1.0]hexan-1-yl)-1,3,4-oxadiazole]	< 100
N#Cc1ccc(N2C[C@]3(c4nnc(C5CCNCC5)o4)C[C@]3(C(F)(F)F)C2)c2c(F)cnn12 [Compound 80, 3-fluoro-4-((1S,5R)-1-(5-(piperidin-4-yl)-1,3,4-oxadiazol-2-yl)-5-(trifluoromethyl)-3-azabicyclo[3.1.0]hexan-3-yl)pyrazolo[1,5-a]pyridine-7-carbonitrile]	< 100
NC12CCC(c3nnc([C@]45CN(c6ccc(C(F)(F)F)c7ncccc67)C[C@@]4(C(F)(F)F)C5)o3)(CC1)CC2 [Compound 81, 4-(5-((1S,5R)-5-(trifluoromethyl)-3-(8-(trifluoromethyl)quinolin-5-yl)-3-azabicyclo[3.1.0]hexan-1-yl)-1,3,4-oxadiazol-2-yl)bicyclo[2.2.2]octan-1-amine]	< 100
CN1CCC(c2nnc([C@]34CN(c5ccc(C#N)n6ncc(Br)c56)C[C@@]3(C(F)(F)F)C4)o2)CC1 [Compound 83, 3-bromo-4-((1S,5R)-1-(5-(1-methylpiperidin-4-yl)-1,3,4-oxadiazol-2-yl)-5-(trifluoromethyl)-3-azabicyclo[3.1.0]hexan-3-yl)pyrazolo[1,5-a]pyridine-7-carbonitrile]	< 1000
